In one assay the test system is H1975 tumor xenograft. Nature of the assay: Inhibition of tumor growth in H1975 tumor xenograft model. The format is in vivo, BALB/c female nude mice. As to conditions: QD x 14. On the procedure: H1975 cells were implanted in BALB/c female nude mice and grown as tumor xenografts. When tumors achieved 120-200 mm^3, mice were assigned into treatment and control groups using randomized block design based upon their tumor volumes. Each group contained 6 tumor-bearing mice. Tumors were measured twice weekly in two dimensions using a caliper, and the tumor volume was calculated from two-dimensional measurements using the equation V=0.5×a×b^2 where a and b are the long and short diameters of the tumor, respectively. Relative tumor volume (RTV) was defined as TVt/TVi, the ratio of the volume on a given day (TVt) and the volume at the start of treatment (TVi). Relative tumor growth rate (T/C) was defined as RTVT/RTVC, the ratio of relative tumor volume of treatment group (RTVT) and relative tumor volume of control group (RTVC) on a given day. Inhibition of tumor growth in a H1975 tumor xenograft model by some compounds is shown below in Table 6 and Table 7.

The target in the next assay is FGFR1 (Homo sapiens (Human), UniProt P11362). Nature of the assay: Z'-LYTE kinase inhibition assay, FGFR1. As to conditions: compound at 0.041 μM. The format is biochemical. On the procedure:
Inhibitory activities of compounds against BTK, EGFR and EGFR mutants (EGFR L858R, EGFR T790M, EGFR L858R/T790M), FGFR1, FGFR2, JAK2, JAK3 and KDR were measured by Invitrogen using Z′-LYTE® Method as briefly described in the following.
Test Compounds are screened in 1% DMSO (final) in the well. For 10 point titrations, 3-fold serial dilutions are conducted from the starting concentration. All ATP Solutions are diluted to a 4× working concentration in Kinase Buffer (50 mM HEPES pH 7.5, 0.01% BRIJ-35, 10 mM MgCl2, 1 mM EGTA). Peptide/Kinase Mixtures are diluted to a 2× working concentration in the appropriate Kinase Buffers as described below.
(v) Peptide/Kinase Mixtures for measurement of FGFR1:
The 2×FGFR1/Tyr 04 mixture is prepared in 50 mM HEPES pH 7.5, 0.01% BRIJ-35, 10 mM MgCl2, 4 mM MnCl2, 1 mM EGTA, 2 mM DTT. The final 10 μL Kinase Reaction consists of 0.41-3.5 ng FGFR1 and 2 μM Tyr 04 in 50 mM HEPES pH 7.5, 0.01% BRIJ-35, 10 mM MgCl2, 2 mM MnC12, 1 mM EGTA, 1 mM DTT. After the 1 hour Kinase Reaction incubation, 5 μL of a 1:64 dilution of Development Reagent B is added.
Reaction starts by 30-second shaking of mixture consisting of 2.5 μL 4× test compound, 5 μL 2× kinase reaction mixture and 2.5 μL 4×ATP Solution on Bar-coded Corning, low volume NBS, black 384-well plate (Corning Cat. #3676). […] Finally fluorescence is read by plate reader. […]

Where [1] appears, read: Table 6, 30 mg/kg, Intraperitoneal injection.

Molecules are shown by their SMILES.

Chain of FGFR1 (P11362 22-822): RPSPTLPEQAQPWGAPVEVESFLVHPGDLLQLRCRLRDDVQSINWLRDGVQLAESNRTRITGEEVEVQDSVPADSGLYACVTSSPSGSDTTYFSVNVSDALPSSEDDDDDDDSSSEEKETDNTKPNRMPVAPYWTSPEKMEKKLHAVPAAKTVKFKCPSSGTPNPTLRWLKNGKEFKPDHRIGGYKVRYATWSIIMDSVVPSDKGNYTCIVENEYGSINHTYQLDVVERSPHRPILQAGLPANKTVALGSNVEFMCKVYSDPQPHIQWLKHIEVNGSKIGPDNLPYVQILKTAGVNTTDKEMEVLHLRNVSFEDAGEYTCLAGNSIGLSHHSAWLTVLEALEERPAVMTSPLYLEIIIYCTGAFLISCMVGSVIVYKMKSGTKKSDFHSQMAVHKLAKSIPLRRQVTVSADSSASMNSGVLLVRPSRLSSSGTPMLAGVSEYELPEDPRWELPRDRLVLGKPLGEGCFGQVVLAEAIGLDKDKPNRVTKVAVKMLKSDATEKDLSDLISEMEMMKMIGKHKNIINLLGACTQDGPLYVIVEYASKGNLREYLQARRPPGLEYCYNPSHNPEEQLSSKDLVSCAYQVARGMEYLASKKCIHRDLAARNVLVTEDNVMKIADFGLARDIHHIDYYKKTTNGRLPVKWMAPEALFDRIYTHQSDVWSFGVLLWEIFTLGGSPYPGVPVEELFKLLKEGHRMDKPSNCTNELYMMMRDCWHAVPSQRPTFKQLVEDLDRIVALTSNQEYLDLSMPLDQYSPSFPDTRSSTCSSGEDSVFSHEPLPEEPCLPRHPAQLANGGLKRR

In the assay with H1975 tumor xenograft (Table 7, 60 mg/kg, Oral), `C=CC(=O)Nc1cccc(-c2cccc3cnc(Nc4ccc(N5CCN(CCO)CC5)c(F)c4F)nc23)c1` [Example C151, N-(3-(2-((2,3-difluoro-4-(4-(2-hydroxyethyl)piperazin-1-yl)phenyl)amino)quinazolin-8-yl)phenyl)acrylamide] displayed a T/C of 28.6%.
On the same count and under the same terms, under `C=CC(=O)Nc1cccc(-c2cccc3cnc(Nc4ccc(N5CCN(CCO)CC5)cc4F)nc23)c1` [Example C147, N-(3-(2-((2-fluoro-4-(4-(2-hydroxyethyl)piperazin-1-yl)phenyl)amino)quinazolin-8-yl)phenyl)acrylamide] stands 55.7%.
As for `C=CC(=O)Nc1cccc(-c2cccc3cnc(Nc4ccc(N5CCN(CCO)CC5)cc4)nc23)c1` [Example C059, N-(3-(2-((4-(4-(2-hydroxyethyl)piperazin-1-yl)phenyl)amino)quinazolin-8-yl)phenyl)acrylamide], the T/C with H1975 tumor xenograft (Table 6, 60 mg/kg, Oral) is reported as 35.3%.
`C=CC(=O)Nc1cccc(-c2cccc3cnc(Nc4ccc(OCCOC)cc4)nc23)c1` [Example C107, N-(3-(2-((4-(2-methoxyethoxy)phenyl)amino)quinazolin-8-yl)phenyl)acrylamide] showed a T/C in the assay with H1975 tumor xenograft (setting [1]) of 63.6%.
For `C=CC(=O)Nc1cccc(-c2cccc3cnc(Nc4ccc(N5CCN(C(C)=O)CC5)cc4)nc23)c1` [Example C032, N-(3-(2-((4-(4-acetylpiperazin-1-yl)phenyl)amino)quinazolin-8-yl)phenyl)acrylamide], on FGFR1, the inhibition at 0.041 µM was over 50%.
Regarding `C=CC(=O)Nc1cccc(-c2cccc3cnc(Nc4ccc(N5CCN(C)CC5)c(F)c4F)nc23)c1` [Example C156, N-(3-(2-((2,3-difluoro-4-(4-methylpiperazin-1-yl)phenyl)amino)quinazolin-8-yl)phenyl)acrylamide], the T/C in the assay on H1975 tumor xenograft (Table 7, 60 mg/kg, Oral) is listed as 36.8%.
As to `C=CC(=O)Nc1cccc(-c2cccc3cnc(Nc4ccc(N5CCN(C)CC5)cc4)nc23)c1` [Example C021, N-(3-(2-((4-(4-methylpiperazin-1-yl)phenyl)amino)quinazolin-8-yl)phenyl)acrylamide], the T/C in the assay with H1975 tumor xenograft (Table 6, 60 mg/kg, Oral) is on record as 30.5%.
`C=CC(=O)Nc1cccc(-c2cccc3cnc(Nc4ccc(NC5CN(CCF)C5)cc4)nc23)c1` [Example C103, N-(3-(2-((4-((1-(2-fluoroethyl)azetidin-3-yl)amino)phenyl)amino)quinazolin-8-yl)phenyl)acrylamide]: the T/C in the assay with H1975 tumor xenograft (setting [1]) is listed as 35.8%.
Same read-out and setting: under `C=CC(=O)Nc1cccc(-c2cccc3cnc(Nc4ccc(N5CCN(C)CC5)nc4)nc23)c1` [Example C041, N-(3-(2-((6-(4-methylpiperazin-1-yl)pyridin-3-yl)amino)quinazolin-8-yl)phenyl)acrylamide] stands 48.7%.
